Data taken from the supplement of paper PMC10307832.

Assays:
Assay in all cases: relative viability (nuclei count vs DMSO), 5 days (fraction); higher = more cells survive
[1] = tested on: LCLC-97TM1
In short: (§1)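 Lung cancer cell lines were pin-tool dosed in 1536-well plates on the day after seeding, with either a lone drug or a fixed anchor-drug dose plus five library-drug doses (not always all listed) in √10 steps. Nuclei were counted on 4× images after 5 days. Relative viability is the ratio of treated-well to vehicle-well nuclei counts, with each value a median of duplicate plates.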

[2] = tested on: NCI-H2347
In short: as §1

[3] = tested on: NCI-H2405
In short: as §1

[4] = tested on: HCC-827
In short: as §1

[5] = tested on: NCI-H661
In short: as §1

[6] = tested on: NCI-H650
In short: as §1

[7] = tested on: RERF-LC-KJ
In short: as §1

[8] = tested on: NCI-H2126
In short: as §1

[9] = tested on: NCI-H522
In short: as §1

[10] = tested on: 201T
In short: as §1

[11] = tested on: NCI-H23
In short: as §1

[12] = tested on: EPLC-272H
In short: as §1

[13] = tested on: PC-14
In short: as §1

[14] = tested on: HCC-78
In short: as §1

[15] = tested on: NCI-H1666
In short: as §1

[16] = tested on: H3255
In short: as §1

[17] = tested on: NCI-H2087
In short: as §1

[18] = tested on: COR-L 105
In short: as §1

[19] = tested on: NCI-H322M
In short: as §1

[20] = tested on: LC-2-ad
In short: as §1

[21] = tested on: NCI-H647
In short: as §1

[22] = tested on: ChaGo-K-1
In short: as §1

[23] = tested on: NCI-H1915
In short: as §1

[24] = tested on: NCI-H520
In short: as §1

C[C@@H]1CN(CC(=O)Nc2ccc3c(c2)Cc2cccc(-c4cc(=O)cc(N5CCOCC5)o4)c2S3)C[C@H](C)O1 + Nc1ncn([C@H]2C[C@H](O)[C@@H](CO)O2)c(=O)n1 [Decitabine] (partner 2 µM)
relative viability ([1]; first compound 0.1265 µM): 0.231
relative viability ([1]; first compound 0.4 µM): 0.279
relative viability ([1]; first compound 4 µM): 0.273
relative viability ([2]; first compound 0.04 µM): 0.581
relative viability ([2]; first compound 0.1265 µM): 0.624
relative viability ([2]; first compound 0.4 µM): 0.693
relative viability ([2]; first compound 4 µM): 0.637
relative viability ([3]; first compound 0.04 µM): 0.878
relative viability ([3]; first compound 0.1265 µM): 0.814
relative viability ([3]; first compound 0.4 µM): 0.728
relative viability ([3]; first compound 4 µM): 0.803
relative viability ([4]; first compound 0.04 µM): 0.355
relative viability ([4]; first compound 0.1265 µM): 0.362
relative viability ([4]; first compound 0.4 µM): 0.418
relative viability ([4]; first compound 4 µM): 0.382
relative viability ([5]; first compound 0.04 µM): 0.496
relative viability ([5]; first compound 0.1265 µM): 0.534
relative viability ([5]; first compound 0.4 µM): 0.623
relative viability ([5]; first compound 4 µM): 0.65
relative viability ([6]; first compound 0.04 µM): 0.346
relative viability ([6]; first compound 0.1265 µM): 0.336
relative viability ([6]; first compound 0.4 µM): 0.377
relative viability ([6]; first compound 4 µM): 0.341
relative viability ([7]; first compound 0.04 µM): 0.711
relative viability ([7]; first compound 0.1265 µM): 0.61
relative viability ([7]; first compound 0.4 µM): 0.678
relative viability ([7]; first compound 4 µM): 0.556
relative viability ([8]; first compound 0.04 µM): 0.543
relative viability ([8]; first compound 0.1265 µM): 0.567
relative viability ([8]; first compound 0.4 µM): 0.623
relative viability ([8]; first compound 4 µM): 0.593
relative viability ([9]; first compound 0.04 µM): 0.663
relative viability ([9]; first compound 0.1265 µM): 0.689
relative viability ([9]; first compound 0.4 µM): 0.641
relative viability ([9]; first compound 4 µM): 0.724
relative viability ([10]; first compound 0.04 µM): 0.816
relative viability ([10]; first compound 0.1265 µM): 0.818
relative viability ([10]; first compound 0.4 µM): 0.84
relative viability ([10]; first compound 4 µM): 0.791
relative viability ([11]; first compound 0.04 µM): 0.347
relative viability ([11]; first compound 0.1265 µM): 0.266
relative viability ([11]; first compound 0.4 µM): 0.296
relative viability ([11]; first compound 4 µM): 0.334
relative viability ([12]; first compound 0.04 µM): 0.386
relative viability ([12]; first compound 0.1265 µM): 0.384
relative viability ([12]; first compound 0.4 µM): 0.394
relative viability ([12]; first compound 4 µM): 0.364
relative viability ([13]; first compound 0.04 µM): 0.235
relative viability ([13]; first compound 0.1265 µM): 0.253
relative viability ([13]; first compound 0.4 µM): 0.192
relative viability ([13]; first compound 4 µM): 0.167
relative viability ([14]; first compound 0.04 µM): 0.65
relative viability ([14]; first compound 0.1265 µM): 0.676
relative viability ([14]; first compound 0.4 µM): 0.688
relative viability ([14]; first compound 4 µM): 0.732
relative viability ([15]; first compound 0.04 µM): 0.744
relative viability ([15]; first compound 0.1265 µM): 0.743
relative viability ([15]; first compound 0.4 µM): 0.677
relative viability ([15]; first compound 4 µM): 0.669
relative viability ([16]; first compound 0.04 µM): 0.682
relative viability ([16]; first compound 0.1265 µM): 0.615
relative viability ([16]; first compound 0.4 µM): 0.558
relative viability ([16]; first compound 4 µM): 0.509
relative viability ([17]; first compound 0.04 µM): 0.306
relative viability ([17]; first compound 0.1265 µM): 0.336
relative viability ([17]; first compound 0.4 µM): 0.267
relative viability ([17]; first compound 4 µM): 0.254
relative viability ([18]; first compound 0.04 µM): 0.644
relative viability ([18]; first compound 0.1265 µM): 0.661
relative viability ([18]; first compound 0.4 µM): 0.723
relative viability ([18]; first compound 4 µM): 0.654
relative viability ([19]; first compound 0.04 µM): 0.526
relative viability ([19]; first compound 0.1265 µM): 0.723
relative viability ([19]; first compound 0.4 µM): 0.657
relative viability ([19]; first compound 4 µM): 0.638
relative viability ([20]; first compound 0.04 µM): 0.939
relative viability ([20]; first compound 0.1265 µM): 0.786
relative viability ([20]; first compound 0.4 µM): 0.792
relative viability ([20]; first compound 4 µM): 0.628
relative viability ([21]; first compound 0.04 µM): 0.442
relative viability ([21]; first compound 0.1265 µM): 0.376
relative viability ([21]; first compound 0.4 µM): 0.369
relative viability ([21]; first compound 4 µM): 0.346
relative viability ([22]; first compound 0.04 µM): 0.498
relative viability ([22]; first compound 0.1265 µM): 0.531
relative viability ([22]; first compound 0.4 µM): 0.56
relative viability ([22]; first compound 4 µM): 0.455
relative viability ([23]; first compound 0.04 µM): 0.259
relative viability ([23]; first compound 0.1265 µM): 0.279
relative viability ([23]; first compound 0.4 µM): 0.283
relative viability ([23]; first compound 4 µM): 0.29
relative viability ([24]; first compound 0.04 µM): 0.613
relative viability ([24]; first compound 0.1265 µM): 0.484
relative viability ([24]; first compound 0.4 µM): 0.449
relative viability ([24]; first compound 4 µM): 0.488

C[C@@H]1CN(CC(=O)Nc2ccc3c(c2)Cc2cccc(-c4cc(=O)cc(N5CCOCC5)o4)c2S3)C[C@H](C)O1 + O=C(CCCCCCC(=O)Nc1ccccc1)NO [Vorinostat] (partner 1 µM)
relative viability ([1]; first compound 0.1265 µM): 0.547
relative viability ([1]; first compound 0.4 µM): 0.685
relative viability ([1]; first compound 4 µM): 0.552
relative viability ([2]; first compound 0.04 µM): 0.564
relative viability ([2]; first compound 0.1265 µM): 0.623
relative viability ([2]; first compound 0.4 µM): 0.562
relative viability ([2]; first compound 4 µM): 0.533
relative viability ([3]; first compound 0.04 µM): 1.06
relative viability ([3]; first compound 0.1265 µM): 1.12
relative viability ([3]; first compound 0.4 µM): 0.94
relative viability ([3]; first compound 4 µM): 1.01
relative viability ([4]; first compound 0.04 µM): 0.801
relative viability ([4]; first compound 0.1265 µM): 0.862
relative viability ([4]; first compound 0.4 µM): 0.727
relative viability ([4]; first compound 4 µM): 0.757
relative viability ([5]; first compound 0.04 µM): 0.689
relative viability ([5]; first compound 0.1265 µM): 0.805
relative viability ([5]; first compound 0.4 µM): 0.756
relative viability ([5]; first compound 4 µM): 0.773
relative viability ([6]; first compound 0.04 µM): 0.364
relative viability ([6]; first compound 0.1265 µM): 0.386
relative viability ([6]; first compound 0.4 µM): 0.39
relative viability ([6]; first compound 4 µM): 0.414
relative viability ([7]; first compound 0.04 µM): 0.648
relative viability ([7]; first compound 0.1265 µM): 0.655
relative viability ([7]; first compound 0.4 µM): 0.738
relative viability ([7]; first compound 4 µM): 0.543
relative viability ([8]; first compound 0.04 µM): 0.853
relative viability ([8]; first compound 0.1265 µM): 0.768
relative viability ([8]; first compound 0.4 µM): 0.759
relative viability ([8]; first compound 4 µM): 0.701
relative viability ([9]; first compound 0.04 µM): 0.539
relative viability ([9]; first compound 0.1265 µM): 0.696
relative viability ([9]; first compound 0.4 µM): 0.876
relative viability ([9]; first compound 4 µM): 0.766
relative viability ([10]; first compound 0.04 µM): 0.926
relative viability ([10]; first compound 0.1265 µM): 0.942
relative viability ([10]; first compound 0.4 µM): 1.01
relative viability ([10]; first compound 4 µM): 0.81
relative viability ([11]; first compound 0.04 µM): 0.634
relative viability ([11]; first compound 0.1265 µM): 0.508
relative viability ([11]; first compound 0.4 µM): 0.537
relative viability ([11]; first compound 4 µM): 0.589
relative viability ([12]; first compound 0.04 µM): 0.457
relative viability ([12]; first compound 0.1265 µM): 0.414
relative viability ([12]; first compound 0.4 µM): 0.407
relative viability ([12]; first compound 4 µM): 0.307
relative viability ([13]; first compound 0.04 µM): 0.75
relative viability ([13]; first compound 0.1265 µM): 0.689
relative viability ([13]; first compound 0.4 µM): 0.705
relative viability ([13]; first compound 4 µM): 0.61
relative viability ([14]; first compound 0.04 µM): 0.455
relative viability ([14]; first compound 0.1265 µM): 0.417
relative viability ([14]; first compound 0.4 µM): 0.46
relative viability ([14]; first compound 4 µM): 0.4
relative viability ([15]; first compound 0.04 µM): 1.01
relative viability ([15]; first compound 0.1265 µM): 1.17
relative viability ([15]; first compound 0.4 µM): 1.09
relative viability ([15]; first compound 4 µM): 0.885
relative viability ([16]; first compound 0.04 µM): 0.634
relative viability ([16]; first compound 0.1265 µM): 0.757
relative viability ([16]; first compound 0.4 µM): 0.985
relative viability ([16]; first compound 4 µM): 0.67
relative viability ([17]; first compound 0.04 µM): 0.85
relative viability ([17]; first compound 0.1265 µM): 0.587
relative viability ([17]; first compound 0.4 µM): 0.663
relative viability ([17]; first compound 4 µM): 0.62
relative viability ([18]; first compound 0.04 µM): 0.799
relative viability ([18]; first compound 0.1265 µM): 0.783
relative viability ([18]; first compound 0.4 µM): 0.926
relative viability ([18]; first compound 4 µM): 0.875
relative viability ([19]; first compound 0.04 µM): 0.883
relative viability ([19]; first compound 0.1265 µM): 0.847
relative viability ([19]; first compound 0.4 µM): 0.902
relative viability ([19]; first compound 4 µM): 0.776
relative viability ([20]; first compound 0.04 µM): 0.639
relative viability ([20]; first compound 0.1265 µM): 0.679
relative viability ([20]; first compound 0.4 µM): 0.712
relative viability ([20]; first compound 4 µM): 0.606
relative viability ([21]; first compound 0.04 µM): 0.547
relative viability ([21]; first compound 0.1265 µM): 0.491
relative viability ([21]; first compound 0.4 µM): 0.665
relative viability ([21]; first compound 4 µM): 0.416
relative viability ([22]; first compound 0.04 µM): 0.496
relative viability ([22]; first compound 0.1265 µM): 0.778
relative viability ([22]; first compound 0.4 µM): 0.803
relative viability ([22]; first compound 4 µM): 0.72
relative viability ([23]; first compound 0.04 µM): 0.434
relative viability ([23]; first compound 0.1265 µM): 0.538
relative viability ([23]; first compound 0.4 µM): 0.537
relative viability ([23]; first compound 4 µM): 0.421
relative viability ([24]; first compound 0.04 µM): 0.776
relative viability ([24]; first compound 0.1265 µM): 0.677
relative viability ([24]; first compound 0.4 µM): 0.656
relative viability ([24]; first compound 4 µM): 0.562
